pIC50: −log10 of the molar value.

The target of the test is T1, human TPH1 (Homo sapiens, UniProt P17752).
T1 sequence (P17752 1-444): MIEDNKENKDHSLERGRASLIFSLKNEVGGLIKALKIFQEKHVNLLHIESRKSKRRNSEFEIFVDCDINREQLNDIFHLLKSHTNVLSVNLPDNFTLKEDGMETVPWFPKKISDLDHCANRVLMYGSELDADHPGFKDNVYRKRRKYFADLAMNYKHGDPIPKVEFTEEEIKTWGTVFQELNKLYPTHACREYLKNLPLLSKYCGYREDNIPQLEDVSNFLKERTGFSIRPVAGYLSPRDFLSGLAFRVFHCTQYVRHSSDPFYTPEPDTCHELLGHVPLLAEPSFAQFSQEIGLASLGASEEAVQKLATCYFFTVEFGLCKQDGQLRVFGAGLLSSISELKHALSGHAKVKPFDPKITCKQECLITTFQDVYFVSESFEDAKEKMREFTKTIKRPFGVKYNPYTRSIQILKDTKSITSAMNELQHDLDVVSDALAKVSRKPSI
Put plainly: biochemical. The method, boiled down: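 Inhibition is derived from 5-hydroxy-L-tryptophan fluorescence (540 nm emission, 300 nm excitation) after perchloric acid stop, relative to DMSO vehicle. Recombinant full-length human enzyme (40-80 nM) reacts with 40 μM tryptophan plus 100 μM methyltetrahydropterin, pH 7.6 Tris/DTT/catalase, 15° C, 60 min.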
As for `CCc1cc2nc3c(n2cc1C)C(c1ccc(OC)c(OC)c1)N(C(=O)COc1ccc(Cl)cc1Cl)CC3` (stereo not drawn) [Example 6.1.1, 2-(2,4-dichlorophenoxy)-1-(1-(3,4-dimethoxyphenyl)-7-ethyl-8-methyl-3,4-dihydroimidazo[1,2-a:5,4-c′]dipyridin-2(1H)-yl)ethan-1-one], the pIC50 was 7.80. The value for `COc1cc(F)c(C2c3c(nc4cc(C(F)(F)F)ccn34)CCN2C(=O)COc2ccc(C3(N[S+]([O-])C(C)(C)C)COC3)cc2Cl)cc1OC` (stereo not drawn) [Example 3.18.8, N-(3-(3-chloro-4-(2-(1-(2-fluoro-4,5-dimethoxyphenyl)-7-(trifluoromethyl)-3,4-dihydroimidazo[1,2-a:5,4-c′]dipyridin-2(1H)-yl)-2-oxoethoxy)phenyl)oxetan-3-yl)-2-methylpropane-2-sulfinamide] was 7.32; that for `O=C(COc1ccc(CN2CCOCC2)cc1Cl)N1CCc2nc3cc(C(F)(F)F)ccn3c2C1c1cccnc1F` (stereo not drawn) [Example 3.2.1, 2-(2-chloro-4-(morpholinomethyl)phenoxy)-1-(1-(2-fluoropyridin-3-yl)-7-(trifluoromethyl)-3,4-dihydroimidazo[1,2-a:5,4-c′]dipyridin-2(1H)-yl)ethan-1-one] was 7.37; that for `O=C(COc1ccc(CN2CCOCC2)cc1Cl)N1CCc2nc3cc(C(F)(F)F)ccn3c2C1c1cc(-c2ccccc2)on1` (stereo not drawn) [Example 3.46.1, 2-(2-chloro-4-(morpholinomethyl)phenoxy)-1-(1-(5-phenylisoxazol-3-yl)-7-(trifluoromethyl)-3,4-dihydroimidazo[1,2-a:5,4-c′]dipyridin-2(1H)-yl)ethan-1-one] was 7.66. The value for `COc1ccc(C2c3c(nc4cc(Cl)ccn34)CCN2C(=O)COc2ccc3ccccc3c2)cc1OC[C@@H](O)CO` (stereo partly drawn) [Example 2.9.1, 1-(7-chloro-1-(3-((S)-2,3-dihydroxypropoxy)-4-methoxyphenyl)-3,4-dihydroimidazo[1,2-a:5,4-c′]dipyridin-2(1H)-yl)-2-(naphthalen-2-yloxy)ethan-1-one] was 7.52.

In turn, `CN(C)C(=O)c1ccc(OC(C)(C)C(=O)N2CCc3nc4ccccn4c3C2c2ccc(Cl)cc2F)c(Cl)n1` (stereo not drawn) [Example 1.4.17, 6-chloro-5-((1-(1-(4-chloro-2-fluorophenyl)-3,4-dihydroimidazo[1,2-a:5,4-c′]dipyridin-2(1H)-yl)-2-methyl-1-oxopropan-2-yl)oxy)-N,N-dimethylpicolinamide] gave a pIC50 of 6.02. The value for `COc1ccc(C2c3c(nc4cc(Cl)c(C)cn34)CCN2C(=O)COc2ccc3ccccc3c2)cc1OC` (stereo not drawn) [Example 13.1.1, 1-(7-chloro-1-(3,4-dimethoxyphenyl)-8-methyl-3,4-dihydroimidazo[1,2-a:5,4-c′]dipyridin-2(1H)-yl)-2-(naphthalen-2-yloxy)ethan-1-one] was 7.40; that for `O=C(COc1ccc2ccccc2c1)N1CCc2nc3cc(C(F)(F)F)ccn3c2C1c1ccc(F)cc1` (stereo not drawn) [Example 3.29.1, 1-(1-(4-fluorophenyl)-7-(trifluoromethyl)-3,4-dihydroimidazo[1,2-a:5,4-c′]dipyridin-2(1H)-yl)-2-(naphthalen-2-yloxy)ethan-1-one] was 6.51. The value for `COc1ccc(C2c3c(nc4cc(Cl)ccn34)CCN2C(=O)COc2ccc(CN3CCOCC3)nc2Cl)cc1OC` (stereo not drawn) [Example 2.1.5, 1-(7-chloro-1-(3,4-dimethoxyphenyl)-3,4-dihydroimidazo[1,2-a:5,4-c′]dipyridin-2(1H)-yl)-2-((2-chloro-6-(morpholinomethyl)pyridin-3-yl)oxy)ethan-1-one] was 6.50.

As to `COc1ccc(C2c3c(nc4cc(C(F)(F)F)ccn34)CCN2C(=O)COc2ccc3ncccc3c2)cc1OC` (stereo not drawn) [Example 3.1.19], the pIC50 was 6.93. In turn, `Cc1ccc(C2c3c(nc4cc(C(F)(F)F)ccn34)CCN2C(=O)COc2ccc(NS(C)(=O)=O)nc2Cl)c(F)c1` (stereo not drawn) [Example 3.22.5, N-(6-chloro-5-(2-(1-(2-fluoro-4-methylphenyl)-7-(trifluoromethyl)-3,4-dihydroimidazo[1,2-a:5,4-c′]dipyridin-2(1H)-yl)-2-oxoethoxy)pyridin-2-yl)methanesulfonamide] had a pIC50 of 7.82. The value for `O=C(COc1ccc2ccccc2c1)N1CCc2nc3cc(C(F)(F)F)ccn3c2C1c1ccc(Cl)cc1` (stereo not drawn) [Example 3.30.1, 1-(1-(4-chlorophenyl)-7-(trifluoromethyl)-3,4-dihydroimidazo[1,2-a:5,4-c′]dipyridin-2(1H)-yl)-2-(naphthalen-2-yloxy)ethan-1-one] was 7.23; that for `COc1ccc(C2c3c(nc4cc(C(F)(F)F)ccn34)CCN2C(=O)COc2ccc3c(c2)OCO3)cc1OC` (stereo not drawn) [Example 3.1.21] was 6.94; that for `O=C(COc1ccc(N2CCOCC2)cc1Cl)N1CCc2nc3cc(Cl)ccn3c2[C@H]1c1cccnc1F` [Example 2.2.2, 1-((1R)-7-chloro-1-(2-fluoropyridin-3-yl)-3,10a-dihydroimidazo[1,2-a:5,4-c′]dipyridin-2(1H)-yl)-2-(2-chloro-4-morpholinophenoxy)ethan-1-one] was 6.91. The value for `O=C(COc1ccc(N2CCOCC2)cc1Cl)N1CCc2nc3cc(C(F)(F)F)ccn3c2C1c1ncccc1F` (stereo not drawn) [Example 3.21.3, 2-(2-chloro-4-morpholinophenoxy)-1-(1-(3-fluoropyridin-2-yl)-7-(trifluoromethyl)-3,4-dihydroimidazo[1,2-a:5,4-c′]dipyridin-2(1H)-yl)ethan-1-one] was 7.06; that for `COc1ccc(C2c3c(nc4ccc(F)cn34)CCN2C(=O)COc2ccc3ccccc3c2)cc1OC` (stereo not drawn) [Example 11.1.1, 1-(1-(3,4-dimethoxyphenyl)-8-fluoro-3,4-dihydroimidazo[1,2-a:5,4-c′]dipyridin-2(1H)-yl)-2-(naphthalen-2-yloxy)ethan-1-one] was 6.91; that for `COc1ccc(C2c3c(nc4cc(C(F)(F)F)ccn34)CCN2C(=O)COc2cccc(C(F)(F)F)c2)cc1OC` (stereo not drawn) [Example 3.1.9] was 6.37.

On to `COc1ccc(C2c3c(nc4cc(C(F)(F)F)ccn34)CCN2C(=O)COc2ccc(CN3CCOCC3)cc2Cl)cn1` (stereo not drawn) [Example 3.6.2, 2-(2-chloro-4-(morpholinomethyl)phenoxy)-1-(1-(6-methoxypyridin-3-yl)-7-(trifluoromethyl)-3,4-dihydroimidazo[1,2-a:5,4-c′]dipyridin-2(1H)-yl)ethan-1-one], for which the pIC50 was 7.30. The value for `COc1cc(F)c(C2c3c(nc4cc(C(F)(F)F)ccn34)CCN2C(=O)COc2ccc(C3(N)COC3)cc2Cl)cc1OC` (stereo not drawn) [Example 3.18.9, 2-(4-(3-aminooxetan-3-yl)-2-chlorophenoxy)-1-(1-(2-fluoro-4,5-dimethoxyphenyl)-7-(trifluoromethyl)-3,4-dihydroimidazo[1,2-a:5,4-c′]dipyridin-2(1H)-yl)ethan-1-one] was 8.00; that for `O=C(COc1ccc(C(F)(F)F)cc1Cl)N1CCc2nc3cccnn3c2C1c1ncc(C2CC2)cc1F` (stereo not drawn) [Example 16.2.5, 2-(2-chloro-4-(trifluoromethyl)phenoxy)-1-(9-(5-cyclopropyl-3-fluoropyridin-2-yl)-6,9-dihydropyrido[4′,3′:4,5]imidazo[1,2-b]pyridazin-8(7H)-yl)ethan-1-one] was 6.62. The value for `CCc1ncccc1OCC(=O)N1CCc2nc3ccccn3c2C1c1ccc(Cl)cc1F` (stereo not drawn) [Example 1.4.2, 1-(1-(4-chloro-2-fluorophenyl)-3,4-dihydroimidazo[1,2-a:5,4-c′]dipyridin-2(1H)-yl)-2-((2-ethylpyridin-3-yl)oxy)ethan-1-one] was 7.26.

Values taken from patent US20180155344A1, “TRICYCLIC PIPERIDINE COMPOUNDS” (ACTELION PHARMACEUTICALS LTD, priority 2015, published 2018).
